Here are results for 16 compounds from PubChem BioAssay AID248 (DTP/NCI, 2004).

The assay has as its system L1210 leukemia ip in BDF1 mice, survival T/C. In words: NCI In Vivo Anticancer Drug Screen. Data for tumor model L1210 Leukemia (intraperitoneal) in B6D2F1 (BDF1) mice. Conditions: endpoint: mean survival time, higher = longer survival. The method in brief:
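Transplanted-tumor mice were given test agent; controls received vehicle only. Survival readings from the two groups were divided (treated over control).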

Where [1] appears, read: dose: 100.0 mg/kg/injection, schedule: Q01DX009 (ip), vehicle: saline.
Setting [2] is: dose: 100.0 mg/kg/injection, schedule: Q04DX003 (ip), vehicle: saline.
Setting [3] is: dose: 200.0 mg/kg/injection, schedule: Q01DX009 (ip), vehicle: saline.
[4] abbreviates: dose: 200.0 mg/kg/injection, schedule: Q04DX003 (ip), vehicle: saline.
Setting [5] is: dose: 400.0 mg/kg/injection, schedule: Q01DX009 (ip), vehicle: saline.
Setting [6] is: dose: 400.0 mg/kg/injection, schedule: Q04DX003 (ip), vehicle: saline.
[7] abbreviates: dose: 100.0 mg/kg/injection, schedule: Q01DX009 (ip), vehicle: Klucel (hydroxypropylcellulose) (HPC).
The mark [8] stands for this setting: dose: 200.0 mg/kg/injection, schedule: Q01DX009 (ip), vehicle: Klucel (hydroxypropylcellulose) (HPC).
The mark [9] stands for this setting: dose: 400.0 mg/kg/injection, schedule: Q01DX009 (ip), vehicle: Klucel (hydroxypropylcellulose) (HPC).
Setting [10] is: dose: 100.0 mg/kg/injection, schedule: Q04DX002 (ip), vehicle: Klucel (hydroxypropylcellulose) (HPC).
Setting [11] is: dose: 200.0 mg/kg/injection, schedule: Q04DX002 (ip), vehicle: Klucel (hydroxypropylcellulose) (HPC).
The mark [12] stands for this setting: dose: 400.0 mg/kg/injection, schedule: Q04DX002 (ip), vehicle: Klucel (hydroxypropylcellulose) (HPC).
The mark [13] stands for this setting: dose: 100.0 mg/kg/injection, schedule: Q01DX001 (ip), vehicle: saline.
Setting [14] is: dose: 200.0 mg/kg/injection, schedule: Q01DX001 (ip), vehicle: saline.
The mark [15] stands for this setting: dose: 400.0 mg/kg/injection, schedule: Q01DX001 (ip), vehicle: saline.
The mark [16] stands for this setting: dose: 100.0 mg/kg/injection, schedule: Q04DX003 (ip), vehicle: Klucel (hydroxypropylcellulose) (HPC).
[17] abbreviates: dose: 200.0 mg/kg/injection, schedule: Q04DX003 (ip), vehicle: Klucel (hydroxypropylcellulose) (HPC).

“And” between values parts separate entries of the source, which are not always exact repeats. Equal values may be shown once. Inconclusive results and toxic doses are left out.

Turning to `CN1OC(C#N)(C#N)C(C#N)(C#N)C1c1ccccc1` (centres undefined), the T/C runs as follows: under setting [1], 103 % of control; under setting [2], 101 % of control; under setting [3], 106 % of control; under setting [4], 89 % of control; under setting [5], 101 % of control; under setting [6], 109 % of control.
Take `CCOC(=O)c1ccc(NC(=O)Oc2ccccc2C(=O)OC)cc1`: the T/C under setting [7] is 96 % of control, the T/C under setting [8] was 97 % of control and the T/C under setting [9] was 93 % of control.
With `CN(c1ccccc1)P(=O)(N1CC1)N1CC1`, the T/C by setting is: (dose: 4.4 mg/kg/injection, schedule: Q01DX009 (ip), vehicle: carboxymethylcellulose (CMC)) 117 % of control; (dose: 6.2 mg/kg/injection, schedule: Q01DX001 (ip), vehicle: carboxymethylcellulose (CMC)) 111 % of control; (dose: 6.6 mg/kg/injection, schedule: Q01DX009 (ip), vehicle: carboxymethylcellulose (CMC)) 152 % of control; (dose: 12.5 mg/kg/injection, schedule: Q01DX001 (ip), vehicle: carboxymethylcellulose (CMC)) 104 % of control; (dose: 15.0 mg/kg/injection, schedule: Q01DX009 (ip), vehicle: carboxymethylcellulose (CMC)) 105 % of control; (dose: 22.0 mg/kg/injection, schedule: Q01DX001 (ip), vehicle: carboxymethylcellulose (CMC)) 123 % of control. Besides, the T/C is, setting by setting: (dose: 33.0 mg/kg/injection, schedule: Q01DX001 (ip), vehicle: carboxymethylcellulose (CMC)) 159 % of control; (dose: 50.0 mg/kg/injection, schedule: Q01DX001 (ip), vehicle: carboxymethylcellulose (CMC)) 115 % of control; (dose: 75.0 mg/kg/injection, schedule: Q01DX001 (ip), vehicle: carboxymethylcellulose (CMC)) 102 % of control.
For the compound `CNC(=O)Nc1nc2ccccc2s1`, the T/C runs as follows: (dose: 50.0 mg/kg/injection, schedule: Q04DX002 (ip), vehicle: Klucel (hydroxypropylcellulose) (HPC)) 91 % of control; under setting [7], 103 % of control; under setting [10], 97 % of control and 98 % of control; under setting [8], 93 % of control; under setting [11], 94 % of control; under setting [9], 93 % of control. The T/C under setting [12] was 90 % of control.
Turning to `CCOC(=O)C(N)CS` (centres undefined), the T/C by setting is: under setting [13], 106 % of control; under setting [14], 97 % of control; under setting [15], 101 % of control.
As to `Cc1c(C)c(C)c(C(=O)C[n+]2ccccc2)c(C)c1C`, the T/C is 104 % of control (dose: 12.5 mg/kg/injection, schedule: Q04DX002 (ip), vehicle: saline); 96 % of control (dose: 25.0 mg/kg/injection, schedule: Q04DX002 (ip), vehicle: saline); 107 % of control (dose: 50.0 mg/kg/injection, schedule: Q04DX002 (ip), vehicle: saline).
Consider `CN(C)c1ccc2c(c1)Cc1cc(NC(N)=O)ccc1-2`, for which the T/C was 115 % of control (dose: 100.0 mg/kg/injection, schedule: Q01DX001 (ip), vehicle: carboxymethylcellulose (CMC)); 96 % of control (dose: 200.0 mg/kg/injection, schedule: Q01DX001 (ip), vehicle: carboxymethylcellulose (CMC)); 91 % of control (dose: 400.0 mg/kg/injection, schedule: Q01DX001 (ip), vehicle: carboxymethylcellulose (CMC)).
`O=C1Nc2ccccc2C2=C3CCCCC3=NNC12` (centres undefined): the T/C runs as follows: under setting [10], 101 % of control; under setting [11], 97 % of control; under setting [12], 108 % of control.
As for `CN(C)S(=O)(=O)c1ccc(NC(=O)OC(C)(c2ccccc2)C2CCCCC2)cc1` (centres undefined), the T/C is, setting by setting: under setting [13], 100 % of control; under setting [14], 100 % of control; under setting [15], 97 % of control.
On to `NC(N)=NN=C(CO)CO`, for which the T/C by setting is: (dose: 1.0 mg/kg/injection, schedule: Q01DX Z (ip), vehicle: methylcellulose (MC)) 103 % of control; (dose: 2.0 mg/kg/injection, schedule: Q01DX Z (ip), vehicle: methylcellulose (MC)) 111 % of control; (dose: 4.0 mg/kg/injection, schedule: Q01DX Z (ip), vehicle: methylcellulose (MC)) 109 % of control; (dose: 8.0 mg/kg/injection, schedule: Q01DX Z (ip), vehicle: methylcellulose (MC)) 117 % of control; (dose: 15.0 mg/kg/injection, schedule: Q01DX Z (oral), vehicle: methylcellulose (MC)) 89 % of control; (dose: 30.0 mg/kg/injection, schedule: Q01DX Z (ip), vehicle: methylcellulose (MC)) 172 % of control. The T/C is, setting by setting: (dose: 30.0 mg/kg/injection, schedule: Q01DX Z (ip), vehicle: saline) 110 % of control; (dose: 30.0 mg/kg/injection, schedule: Q01DX Z (oral), vehicle: methylcellulose (MC)) 102 % of control; (dose: 60.0 mg/kg/injection, schedule: Q01DX Z (ip), vehicle: saline) 108 % of control; (dose: 60.0 mg/kg/injection, schedule: Q01DX Z (oral), vehicle: methylcellulose (MC)) 93 % of control; (dose: 120.0 mg/kg/injection, schedule: Q01DX Z (ip), vehicle: saline) 103 % of control; (dose: 120.0 mg/kg/injection, schedule: Q01DX Z (oral), vehicle: methylcellulose (MC)) 100 % of control. Further, the T/C by setting is: (dose: 120.0 mg/kg/injection, schedule: Q01DX Z (oral), vehicle: saline) 100 % of control; (dose: 240.0 mg/kg/injection, schedule: Q01DX Z (oral), vehicle: saline) 100 % of control; (dose: 480.0 mg/kg/injection, schedule: Q01DX Z (oral), vehicle: saline) 101 % of control; (dose: 960.0 mg/kg/injection, schedule: Q01DX Z (oral), vehicle: saline) 101 % of control.
Take `C=CCN(CC=C)C(=O)C1C2CC3OC(=O)C1C3C2` (centres undefined): the T/C was 94 % of control and 104 % of control under setting [2]; 109 % of control and 104 % of control under setting [4]; 94 % of control and 102 % of control under setting [6].
Regarding `COc1ccc(CN(C(C)=O)c2cc(C)c([N+](=O)[O-])cc2OC)cc1OC`, the T/C runs as follows: under setting [1], 90 % of control; under setting [2], 93 % of control; under setting [3], 94 % of control; under setting [4], 100 % of control; under setting [5], 96 % of control; under setting [6], 98 % of control.
As for `N#CCc1nc2ccccc2[nH]1`, the T/C (dose: 50.0 mg/kg/injection, schedule: Q01DX009 (ip), vehicle: Klucel (hydroxypropylcellulose) (HPC)) was 97 % of control; the T/C (dose: 50.0 mg/kg/injection, schedule: Q04DX003 (ip), vehicle: Klucel (hydroxypropylcellulose) (HPC)) was 101 % of control; the T/C (dose: 100.0 mg/kg/injection, schedule: Q01DX001 (ip), vehicle: Klucel (hydroxypropylcellulose) (HPC)) was 102 % of control; the T/C under setting [7] was 98 % of control; the T/C under setting [16] was 98 % of control; the T/C under setting [8] was 88 % of control. The T/C under setting [17] is 101 % of control.
Consider `Cc1cc(CSC2=NCCCN2)c(C)cc1CSC1=NCCCN1`, for which the T/C (dose: 1.56 mg/kg/injection, schedule: Q01DX009 (ip), vehicle: saline) is 88 % of control; the T/C (dose: 3.13 mg/kg/injection, schedule: Q01DX009 (ip), vehicle: saline) was 103 % of control; the T/C (dose: 6.25 mg/kg/injection, schedule: Q01DX009 (ip), vehicle: saline) was 92 % of control.
`Nc1cc(Cl)ccc1S(N)(=O)=O`: the T/C was 92 % of control under setting [1]; 105 % of control (dose: 100.0 mg/kg/injection, schedule: Q04DX003 (ip), vehicle: saline with Tween-80); 100 % of control under setting [3]; 105 % of control (dose: 200.0 mg/kg/injection, schedule: Q04DX003 (ip), vehicle: saline with Tween-80); 111 % of control under setting [5]; 108 % of control (dose: 400.0 mg/kg/injection, schedule: Q04DX003 (ip), vehicle: saline with Tween-80).
As to `CSc1nc(SC)c(Cl)c(C(Cl)Cl)n1`, the T/C is 98 % of control under setting [16]; 94 % of control under setting [17]; 102 % of control (dose: 400.0 mg/kg/injection, schedule: Q04DX003 (ip), vehicle: Klucel (hydroxypropylcellulose) (HPC)).
